Tests used:
[1] = test system: HDAC (HeLa nuclear extract); experiment: Test for evaluation of HDAC inhibitory activity (HDAC Fluorimetric Assay/Drug Discovery Kit, Biomol); format: biochemical; conditions: final concentration of the test compound 30 μM, values more than 100% shown as 100%
Description: Using HDAC Fluorimetric Assay/Drug Discovery Kit (manufactured by Biomol), HDAC inhibitory activity of the present compounds was measured according to the protocol included with the kit. The kit contains Buffer, HeLa nuclear extract (includes HDAC), Substrate, Developer and Trichostatin A HDAC inhibitor).
A test compound was dissolved in dimethyl sulfoxide (hereinafter referred to as “DMSO”), whereby a 2 mg/mL solution was prepared. Then, the resulting solution was diluted with Buffer containing 5% DMSO, whereby a 150 μM test compound solution was prepared.
1) To a 384-well culture plate, the test compound solution was added in an amount of 2 μL per well.
2) HeLa nuclear extract was diluted 30-fold with Buffer. The resulting solution was added in an amount of 3 μL per well, and then incubation was performed at 37° C. for 2 hours.
3) Substrate was diluted 500-fold with Buffer. The resulting solution was added in an amount of 5 μL per well (the final concentration of the test compound was 30 μM), and then incubation was performed at 37° C. for 10 minutes.
4) Developer was diluted 20-fold with Buffer and Trichostatin A (2 μM) was added to it. The resulting solution was added in an amount of 10 μL per well, and then incubation was performed at room temperature for 15 minutes.
5) The fluorescence intensity of each well was measured using multilabel counter ARVO (manufactured by Wallac) with excitation at 360 nm and emission at 460 nm.
6) A control data was obtained from the same experiment except that Buffer containing 5% DMSO was added instead of the test compound solution as the above-mentioned procedure from 1) to 5).
7) A blank data was obtained from the same experiment except that Buffer containing 5% DMSO was added instead of the test compound solution and that Buffer was added instead of Hela nuclear extract as the above-mentioned procedure from 1) to 5).
Enzyme inhibitory rate (%) was calculated using the following equation. (Enzyme Inhibitory Rate(%))=100×[1−{(Fluorescence Intensity of Test Compound Solution)−(Florescence Intensity of Blank)}/{(Florescence Intensity of Control)−(Florescence Intensity of Blank)}] (Test Results)

[2] = test system: human trabecular meshwork cell line (TM-1 cells); experiment: Test for evaluation of effect of morphological change on trabecular meshwork cells (cell shape index, CSI); format: cell-based; conditions: final concentration 10 μM, 24 hours incubation, Control 0.694, lower CSI indicates greater morphological changes
Excerpt: Further, as a result of studying an effect morphological change of the present compound on trabecular meshwork cells, i.e., an effect of morphological change of the present compound on trabecular meshwork cells in an evaluation system using the cell shape index (hereinafter referred to as “CSI”) reported in The Journal of Clinical Investigation, 103, 1141-1150 (1999) as an index, it was found the present compound has an excellent effect of morphological change on trabecular meshwork cells.
As a method for evaluating a cellular morphological change, an evaluation system using the cell shape index (hereinafter referred to as “CSI”) as an index has been reported in The Journal of Clinical Investigation, 103, 1141-1150 (1999). Therefore, according to the method described in the above document, an effect of morphological change of the present compounds on trabecular meshwork cells was evaluated.
A human trabecular meshwork cell line (hereinafter referred to as “TM-1 cells”) reported in Investigative Ophthalmology & Visual Science, 43, 151-161 (2002) was used.
Culture medium 1: A reagent was prepared by adding fetal bovine serum (10%), L-glutamine (2 mM), amphotericin B ([…]), and gentamicin (25 μg/mL) to Dulbecco's Modified Eagle Medium (hereinafter referred to as “D-MEM”).
Culture medium 2: A reagent was prepared by adding fetal bovine serum (3%), L-glutamine (2 mM), amphotericin B (2.5 μg/mL), and gentamicin (25 μg/mL) were added to D-MEM.
Cell staining liquid: A mixed liquid of Calcein-AM (16 μM) and Hoechst 33342 (40 μM) was prepared by diluting a Calcein-AM solution (cytoplasmic staining reagent, manufactured by Dojindo Laboratories) and a Hoechst 33342 solution (nuclear staining reagent, manufactured by Dojindo Laboratories) with D-MEM containing L-glutamine (2 mM), amphotericin B (2.5 μg/mL), and gentamicin (25 μg/mL).
TM-1 cells subcultured at 37° C. in a 8% carbon dioxide gas atmosphere were treated with a trypsin/EDTA solution (0.05% trypsin and 0.53 mM tetrasodium ethylenediaminetetraacetate) at 24 hours before performing a drug treatment mentioned below and seeded on a 96-well culture plate. The culture medium 1 was used for the subculture of the cells. The culture medium 2 was used for the cell culture after seeding the cells on the plate.
A test compound was dissolved in DMSO, whereby a 5 mM solution was prepared. Then, the resulting solution was diluted with the culture medium 2, whereby a 200 μM test compound solution was prepared.
It has been reported that Y-27632 which is a Rho kinase inhibitor induces a morphological change in trabecular meshwork cells in Investigative Ophthalmology & Visual Science, 42, 137-144 (2001). Therefore, Y-27632 (produced according to the method described in WO 90/05723) was used as a positive control, and dissolved in DMSO in the same manner as the test compound, whereby a 5 mM solution was prepared, and then, the resulting solution was diluted with the culture medium 2, whereby a 200 μM positive control compound solution was prepared.
1) To a 96-well culture plate, a solution of TM-1 cells adjusted to a cell density of […] was added in an amount of 95 μL (1.5×10^4 cells) per well.
2) Incubation was performed at 37° C. in a 8% carbon dioxide gas atmosphere for 24 hours.
3) The test compound solution or positive control compound solution was added in an amount of 5 μL per well (the final concentration of the test compound or positive control compound was 10 μM). As a control, the culture medium 2 containing DMSO (4%) was added in an amount of 5 μL per well.
4) Incubation was performed at 37° C. in a 8% carbon dioxide gas atmosphere for 24 hours.
5) The cell staining liquid was added in an amount of 10 μL per well.
6) Incubation was performed at 37° C. in a 8% carbon dioxide gas atmosphere for 1 hour to stain the cells.
7) A 37% formaldehyde solution was added in an amount of 10 μL per well.
8) Incubation was performed at room temperature for 1 hour to fix the cells. […]

Compound	Enzyme Inhibitory Rate (%) [1] [%]	CSI [2]
CCOC(=O)CNC(=O)N(CCCN1CCOCC1)Cc1ccc(C(=O)Nc2cscc2N)nc1 [Compound No. 1-88, N-(4-Aminothiophen-3-yl)-5-[3-ethoxycarbonylmethyl-1-[3-(morpholin-4-yl)propyl]ureidomethyl]pyridine-2-carboxylic acid amide]	95	0.539
C[C@@H](N)[C@H]1CC[C@H](C(=O)Nc2ccncc2)CC1 [Y-27632, reference compound]		0.627
CN(C)CCN(Cc1ccc(C(=O)Nc2cscc2N)nc1)C(N)=O [Compound No. 1-104, N-(4-Aminothiophen-3-yl)-5-[1-(2-dimethylaminoethyl)ureidomethyl]pyridine-2-carboxylic acid amide]	97	0.505
CN(C)CCCN(Cc1ccc(C(=O)Nc2cscc2N)nc1)C(=O)Nc1ccsc1 [Compound No. 1-24, N-(4-Aminothiophen-3-yl)-5-[1-(3-dimethylaminopropyl)-3-(thiophen-3-yl)ureidomethyl]pyridine-2-carboxylic acid amide]	100	0.509
CN1CCN(CCN(Cc2ccc(C(=O)Nc3cscc3N)nc2)C(=O)NCCc2ccc3c(c2)OCO3)CC1 [Compound No. 1-77, N-(4-Aminothiophen-3-yl)-5-[2-[3-(benzo[1,3]dioxol-5-yl)]ethyl-1-[2-(4-methylpiperazin-1-yl)ethyl]ureidomethyl]pyridine-2-carboxylic acid amide]	100	0.515
CN(C)CCN(Cc1ccc(C(=O)Nc2cscc2N)nc1)C(=O)Nc1ccc2c(c1)OCCO2 [Compound No. 1-1, N-(4-Aminothiophen-3-yl)-5-[3-(2,3-dihydrobenzo[1,4]dioxin-6-yl)-1-(2-dimethylaminoethyl)ureidomethyl]pyridine-2-carboxylic acid amide]	97	0.527
CN(C)CCN(Cc1ccc(C(=O)Nc2cscc2N)nc1)C(=O)NCCc1ccccc1 [Compound No. 1-8, N-(4-Aminothiophen-3-yl)-5-[1-(2-dimethylaminoethyl)-3-phenethylureidomethyl]pyridine-2-carboxylic acid amide]	96	0.548
Nc1cscc1NC(=O)c1ccc(CN(CCCN2CCOCC2)C(=O)NC2CCCC2)cn1 [Compound No. 1-34, N-(4-Aminothiophen-3-yl)-5-[3-cyclopentyl-1-[3-(morpholin-4-yl)propyl]ureidomethyl]pyridine-2-carboxylic acid amide]	97	0.516
CN(C)CCN(Cc1ccc(C(=O)Nc2cscc2N)nc1)C(=O)Nc1ccsc1 [Compound No. 1-7, N-(4-Aminothiophen-3-yl)-5-[1-(2-dimethylaminoethyl)-3-(thiophen-3-yl)ureidomethyl]pyridine-2-carboxylic acid amide]	100	0.523

More lines, main results first:

Enzyme Inhibitory Rate (%) [1] [%]	Compound	CSI [2]
97	Nc1cscc1NC(=O)c1ccc(CN(CCCCN2CCOCC2)C(=O)NCCc2ccccc2)cn1 [Compound No. 1-59, N-(4-Aminothiophen-3-yl)-5-[1-[4-(morpholin-4-yl)butyl]-3-phenethylureidomethyl]pyridine-2-carboxylic acid amide]	0.500
97	CC(C)NC(=O)N(CCCN1CCN(C)CC1)Cc1ccc(C(=O)Nc2cscc2N)nc1 [Compound No. 1-56, N-(4-Aminothiophen-3-yl)-5-[3-isopropyl-1-[3-(4-methylpiperazin-1-yl)propyl]ureidomethyl]pyridine-2-carboxylic acid amide]	0.422
97	CN(C)CCN(Cc1ccc(C(=O)Nc2cscc2N)nc1)C(=O)Nc1ccc(F)c(F)c1 [Compound No. 1-18, N-(4-Aminothiophen-3-yl)-5-[3-(3,4-difluorophenyl)-1-(2-dimethylaminoethyl)ureidomethyl]pyridine-2-carboxylic acid amide]	0.519
100	Nc1cscc1NC(=O)c1ccc(CN(CCN2CCCC2)C(=O)NC2CCCC2)cn1 [Compound No. 1-71, N-(4-Aminothiophen-3-yl)-5-[3-cyclopentyl-1-[2-(pyrrolidin-1-yl)ethyl]ureidomethyl]pyridine-2-carboxylic acid amide]	0.481
97	CN(C)CCN(Cc1ccc(C(=O)Nc2cscc2N)nc1)C(=O)Nc1nccs1 [Compound No. 1-103, N-(4-Aminothiophen-3-yl)-5-[1-(2-dimethylaminoethyl)-3-(thiazol-2-yl)ureidomethyl]pyridine-2-carboxylic acid amide]	0.496

From patent US8288380B2, “Thiophenediamine derivative having urea structure” (Santen Pharmaceutical Co., Ltd., priority 2008, dated 2012)
